US8592456B2 (4SC Discovery GmbH, priority 2011, dated 2013)

Tested on: PBMC (T cell proliferation)
Assay: T cell proliferation assay, PHA-stimulated human PBMC (BrdU ELISA)
Format: cell-based
Settings: Homo sapiens, 48 h, read-out: D: IC50 (Tcell proliferation)
Method: Cell proliferation was analysed using the BrdU based cell proliferation ELISA from Roche (Mannheim, Germany) according to the manufacturer's instructions.
T Cell Proliferation Assay
Peripheral blood mononuclear cells (PBMC) from healthy human donors were isolated by centrifugation over Ficoll-Hypaque (Sigma-Aldrich, Germany) according to manufacturer's instructions. Purified PBMC were washed twice with PBS and resuspended in RPMI1640 culture medium supplemented with 10% dialyzed heat inactivated fetal calf serum, 1.5 mM L-glutamine, 100 U penicillin/ml, and […] (all from PAN Biotech, Aidenbach, Germany). For stimulation, PBMC were seeded at 1×10^5 cells/well, activated with 2 μg/ml phytohaemagglutinin (PHA, Sigma) and incubated with the test compound. After 48 hours proliferation was measured using the BrdU based cell proliferation ELISA from Roche (Mannheim, Germany) according to the manual.

SMILES	IC50
CCOC(=O)c1c(-c2c(F)cccc2Cl)noc1-c1cnn(-c2ccccc2N)c1C(F)(F)F [Example B-98, ethyl 5-(1-(2-aminophenyl)-5-(trifluoromethyl)-1H-pyrazol-4-yl)-3-(2-chloro-6-fluorophenyl)isoxazole-4-carboxylate]	10 to 100 nM

Same assay, conditions: Homo sapiens, 48 h, read-out: IC50 (Tcell proliferation)

SMILES	IC50
Fc1cccc(Cl)c1-c1noc(-c2cnn(-c3ccccc3Cl)c2C(F)(F)F)c1-c1nccs1 [IB-29, 3-(2-chloro-6-fluorophenyl)-5-(1-(2-chlorophenyl)-5-(trifluoromethyl)-1H-pyrazol-4-yl)-4-(thiazol-2-yl)isoxazole]	1000 to 10000 nM
Oc1csc(-c2c(-c3c(F)cccc3Cl)noc2-c2cnn(-c3cccc(F)c3)c2C(F)(F)F)n1 [Example I-9, 2-(3-(2-chloro-6-fluorophenyl)-5-(1-(3-fluorophenyl)-5-(trifluoromethyl)-1H-pyrazol-4-yl)isoxazol-4-yl)thiazol-4-ol]	100 to 1000 nM

Same assay, conditions: PHA-stimulated human PBMC, 48 hours, BrdU; column D; activity classes 1-4; read-out: IC50 (Tcell proliferation)

SMILES	IC50
Fc1cccc(Cl)c1-c1noc(-c2cnn(-c3ccncc3)c2C(F)(F)F)c1-c1ccoc1 [IB-24, 3-(2-chloro-6-fluorophenyl)-4-(furan-3-yl)-5-(1-(pyridin-4-yl)-5-(trifluoromethyl)-1H-pyrazol-4-yl)isoxazole]	10 to 100 nM
Fc1cccc(Cl)c1-c1noc(-c2cnn(-c3ccncc3)c2C(F)(F)F)c1-c1nnco1 [IB-16, 2-(3-(2-chloro-6-fluorophenyl)-5-(1-(pyridin-4-yl)-5-(trifluoromethyl)-1H-pyrazol-4-yl)isoxazol-4-yl)-1,3,4-oxadiazole]	100 to 1000 nM
Cc1nnc(-c2c(-c3c(F)cccc3Cl)noc2-c2cnn(-c3ccncc3)c2C(F)(F)F)o1 [IB-19, 2-(3-(2-chloro-6-fluorophenyl)-5-(1-(pyridin-4-yl)-5-(trifluoromethyl)-1H-pyrazol-4-yl)isoxazol-4-yl)-5-methyl-1,3,4-oxadiazole]	100 to 1000 nM

Same assay, conditions: human PBMC, 2 μg/ml PHA, 48 hours, BrdU; read-out: D: IC50 (Tcell proliferation)

SMILES	IC50
O=C(NCc1ccccc1C(F)(F)F)c1c(-c2c(F)cccc2Cl)noc1-c1cnn(-c2ccccc2F)c1C(F)(F)F [Example 23, 3-(2-chloro-6-fluorophenyl)-5-(1-(2-fluorophenyl)-5-(trifluoromethyl)-1H-pyrazol-4-yl)-N-(2-(trifluoromethyl)benzyl)isoxazole-4-carboxamide]	1000 to 10000 nM
COC(=O)c1c(-c2c(F)cccc2Cl)noc1-c1cnn(-c2ccc(OC(F)(F)F)cc2)c1C(F)(F)F [Example 33, methyl 3-(2-chloro-6-fluorophenyl)-5-(1-(4-(trifluoromethoxy)phenyl)-5-(trifluoromethyl)-1H-pyrazol-4-yl)isoxazole-4-carboxylate]	1000 to 10000 nM
CCOC(=O)c1c(-c2c(F)cccc2Cl)noc1-c1cnn(-c2ccc([N+](=O)[O-])cc2)c1C(F)(F)F [Example B-94, ethyl 3-(2-chloro-6-fluorophenyl)-5-(1-(4-nitrophenyl)-5-(trifluoromethyl)-1H-pyrazol-4-yl)isoxazole-4-carboxylate]	1000 to 10000 nM
CNC(=O)c1c(-c2c(F)cccc2Cl)noc1-c1cnn(-c2ccc(F)cc2F)c1C(F)(F)F [Example 57, 3-(2-chloro-6-fluorophenyl)-5-(1-(2,4-difluorophenyl)-5-(trifluoromethyl)-1H-pyrazol-4-yl)-N-methylisoxazole-4-carboxamide]	1000 to 10000 nM
Fc1cccc(-n2ncc(-c3onc(-c4c(F)cccc4Cl)c3Br)c2C(F)(F)F)c1 [Example 137, 4-bromo-3-(2-chloro-6-fluorophenyl)-5-(1-(3-fluorophenyl)-5-(trifluoromethyl)-1H-pyrazol-4-yl)isoxazole]	10 to 100 nM
O=C(c1c(-c2c(F)cccc2Cl)noc1-c1cnn(-c2cccc(F)c2)c1C(F)(F)F)N1CCOCC1 [Example 127, (3-(2-chloro-6-fluorophenyl)-5-(1-(3-fluorophenyl)-5-(trifluoromethyl)-1H-pyrazol-4-yl)isoxazol-4-yl)(morpholino)methanone]	1000 to 10000 nM
Fc1cccc(Cl)c1-c1noc(-c2cnn(-c3cccc(Cl)c3)c2C(F)(F)F)c1Br [Example 140, 4-bromo-3-(2-chloro-6-fluorophenyl)-5-(1-(3-chlorophenyl)-5-(trifluoromethyl)-1H-pyrazol-4-yl)isoxazole]	10 to 100 nM
CON(C)C(=O)c1c(-c2c(F)cccc2Cl)noc1-c1cnn(-c2ccncc2)c1C(F)(F)F [Example B-59, 3-(2-chloro-6-fluorophenyl)-N-methoxy-N-methyl-5-(1-(pyridin-4-yl)-5-(trifluoromethyl)-1H-pyrazol-4-yl)isoxazole-4-carboxamide]	1000 to 10000 nM
CCOC(=O)c1c(-c2c(F)cccc2Cl)noc1-c1cnn(CC2CCOCC2)c1C(F)(F)F [Example B-81, ethyl 3-(2-chloro-6-fluorophenyl)-5-(1-((tetrahydro-2H-pyran-4-yl)methyl)-5-(trifluoromethyl)-1H-pyrazol-4-yl)isoxazole-4-carboxylate]	100 to 1000 nM
COC(=O)c1c(-c2c(Cl)cccc2Cl)noc1-c1cnn(-c2cccc(Cl)c2)c1C(F)(F)F [Example B-75, methyl 5-(1-(3-chlorophenyl)-5-(trifluoromethyl)-1H-pyrazol-4-yl)-3-(2,6-dichlorophenyl)isoxazole-4-carboxylate]	< 10 nM
COC(=O)c1c(-c2c(F)cccc2Cl)noc1-c1cnn(-c2cccc(Cl)c2)c1 [Example 115, methyl 3-(2-chloro-6-fluorophenyl)-5-(1-(3-chlorophenyl)-1H-pyrazol-4-yl)isoxazole-4-carboxylate]	1000 to 10000 nM
CCOC(=O)c1c(-c2ccccc2Cl)noc1-c1cnn(-c2cccc(Cl)c2)c1C(F)(F)F [Example B-41, ethyl 3-(2-chlorophenyl)-5-(1-(3-chlorophenyl)-5-(trifluoromethyl)-1H-pyrazol-4-yl)-isoxazole-4-carboxylate]	10 to 100 nM
COC(=O)c1c(-c2ccccc2Cl)noc1-c1cnn(-c2cccc(Cl)c2)c1C(F)(F)F [Example B-71, methyl 3-(2-chlorophenyl)-5-(1-(3-chlorophenyl)-5-(trifluoromethyl)-1H-pyrazol-4-yl)isoxazole-4-carboxylate]	< 10 nM
CON(C)C(=O)c1c(-c2c(F)cccc2Cl)noc1-c1cnn(-c2ccccc2Br)c1C(F)(F)F [Example B-74, 5-(1-(2-bromophenyl)-5-(trifluoromethyl)-1H-pyrazol-4-yl)-3-(2-chloro-6-fluorophenyl)-N-methoxy-N-methylisoxazole-4-carboxamide]	1000 to 10000 nM
COC(=O)c1c(-c2c(F)cccc2Cl)noc1-c1cnn(-c2cccc(Cl)c2)c1C(F)(F)F [Example 11, methyl 3-(2-chloro-6-fluorophenyl)-5-(1-(3-chlorophenyl)-5-(trifluoromethyl)-1H-pyrazol-4-yl)isoxazole-4-carboxylate]	< 10 nM
CC(=O)Nc1c(-c2c(F)cccc2Cl)noc1-c1cnn(-c2cccc(F)c2)c1C(F)(F)F [Example 139, N-(3-(2-chloro-6-fluorophenyl)-5-(1-(3-fluorophenyl)-5-(trifluoromethyl)-1H-pyrazol-4-yl)isoxazol-4-yl)acetamide]	1000 to 10000 nM
COC(=O)c1c(-c2c(F)cccc2Cl)noc1-c1cnn(C2CCS(=O)(=O)C2)c1C(F)(F)F (stereo not drawn) [Example 103, methyl 3-(2-chloro-6-fluorophenyl)-5-(1-(3-hydrazinyltetrahydrothiophene 1,1-dioxide)-5-(trifluoromethyl)-1H-pyrazol-4-yl)isoxazole-4-carboxylate]	100 to 1000 nM
CCOC(=O)c1c(-c2onc(-c3c(F)cccc3Cl)c2C(=O)OC)cnn1-c1cccc(C#N)c1 [Example 13, methyl 3-(2-chloro-6-fluorophenyl)-5-(1-(3-cyanophenyl)-5-(ethoxycarbonyl)-1H-pyrazol-4-yl)isoxazole-4-carboxylate]	100 to 1000 nM
COC(=O)c1c(-c2c(F)cccc2Cl)noc1-c1cnn(-c2cc(F)cc(F)c2)c1C(F)(F)F [Example 50, methyl 3-(2-chloro-6-fluorophenyl)-5-(1-(3,5-difluorophenyl)-5-(trifluoromethyl)-1H-pyrazol-4-yl)isoxazole-4-carboxylate]	< 10 nM
CCOC(=O)c1c(-c2ccncc2F)noc1-c1cnn(-c2cccc(NC(C)=O)c2)c1C(F)(F)F [Example B-6, ethyl 5-(1-(3-acetamidophenyl)-5-(trifluoromethyl)-1H-pyrazol-4-yl)-3-(3-fluoropyridin-4-yl)isoxazole-4-carboxylate]	100 to 1000 nM
CNC(=O)c1c(-c2c(F)cccc2Cl)noc1-c1cnn(-c2cccc(Cl)c2)c1C(F)(F)F [Example 32, 3-(2-chloro-6-fluorophenyl)-5-(1-(3-chlorophenyl)-5-(trifluoromethyl)-1H-pyrazol-4-yl)-N-methylisoxazole-4-carboxamide]	10 to 100 nM
COC(=O)c1c(-c2ccccc2Cl)noc1-c1cnn(-c2cccc(F)c2)c1C(F)(F)F [Example 95, methyl 3-(2-chlorophenyl)-5-(1-(3-fluorophenyl)-5-(trifluoromethyl)-1H-pyrazol-4-yl)isoxazole-4-carboxylate]	< 10 nM
COC(=O)c1c(-c2c(F)cccc2Cl)noc1-c1cnn(-c2c(Cl)cccc2Cl)c1C(F)(F)F [Example 70, methyl 3-(2-chloro-6-fluorophenyl)-5-(1-(2,6-dichlorophenyl)-5-(trifluoromethyl)-1H-pyrazol-4-yl)isoxazole-4-carboxylate]	100 to 1000 nM
CCOC(=O)c1c(-c2c(F)cccc2Cl)noc1-c1cnn(-c2cccc(C#N)c2)c1C(F)(F)F [Example B-32, ethyl 3-(2-chloro-6-fluorophenyl)-5-(1-(3-cyanophenyl)-5-(trifluoromethyl)-1H-pyrazol-4-yl)isoxazole-4-carboxylate]	10 to 100 nM
